Like-named read-outs stand apart in the source and are kept apart here. Each block holds one compound with its values, some of them ahead of it.
Columns and labels:
tyrosinase = conditions: cited from earlier work
[1] = cited from earlier work
[2] = system: B16F10 murine melanoma cells; assay: melanin assay in α-MSH-stimulated cells; assay type: cell-based
Description: Melanin production was assessed according to the methodology outlined in a previous study. B16F10 cells were cultured in 6-well plates at a density of 100,000 cells per well. After overnight incubation, the cells were treated with different concentrations of the test compound for 48 h. Note that 1 μM of α-melanocyte-stimulating hormone (α-MSH) (Sigma Aldrich, St. Louis, MO, USA) was used to induce melanin synthesis. Following treatment, the cells were washed twice with PBS, detached using trypsin/EDTA, and centrifuged at 3,000×g for 5 min. The resulting cell pellets, containing approximately 700,000 cells, were solubilised in 2 M NaOH and heated at 100 °C for 30 min. Melanin content was quantified by measuring absorbance at 405 nm.

[3] = copper-chelating activity assay (pyrocatechol violet); conditions: 5 mM
Description: The copper-chelating activity of compound 4 was assessed using previously reported protocol[44] with minor modifications. […] After that, the absorbance of each well was measured at 620 nm. The copper-chelating activity was calculated using the formula: Copper-chelating activity (%) = [(Acon – Asam)/Acon] × 100, where Acon and Asam are the absorbance of the control and test sample, respectively.

cytotoxicity MTT assay = assay type: cell-based, murine; conditions: mouse, B16F10 melanoma cells, read-out: cell viability
Description: Cell viability was determined using the MTT assay (3-(4,5-dimethylthiazol-2-yl)-2,5-diphenyltetrazolium bromide). B16F10 (murine melanoma cell line) was purchased from American Type Culture Collection (ATCC, Manassas, VA, USA). B16F10 cells were seeded into 96-well plates at a density of 1500 cells per well. After overnight incubation, the cells were treated with different concentrations of the test compound for 48 h. Following this, MTT reagent was added to each well and incubated for 3 h. The culture medium was then removed, and 100 μL of DMSO was used to dissolve the formazan crystals. Absorbance was measured at 540 nm to evaluate cell viability.

mushroom tyrosinase = mushroom tyrosinase activity assay (L-DOPA substrate); assay type: biochemical; conditions: mean ± SEM
Description: The procedure for the mushroom tyrosinase activity assay was conducted in accordance with the methodology described in a previous report. […] In a 96-well plate, 40 μL of mushroom tyrosinase (5 U/μL, Sigma Aldrich, St. Louis, MO, USA) was added to each well, followed by 50 μL of the test compound at various concentrations. After that, 10 μL of 50 mM L-DOPA (purity ≥98%, Sigma-Aldrich, St. Louis, MO, USA) were added and incubated in darkness at 37 °C for 15 min. Finally, the absorbance was measured at 450 nm. The experiment was conducted in triplicate. IC50 values were determined using GraphPad Prism 10.2.2 software.

SMILES: C[C@@H]1[C@H](O)[C@@H](C)/C=C/C=C/C=C/C=C/C=C/C=C/C=C/[C@H](O[C@@H]2O[C@H](C)[C@@H](O)[C@H](N)[C@@H]2O)C[C@@H]2O[C@](O)(C[C@@H](O)C[C@@H](O)[C@H](O)CC[C@@H](O)C[C@@H](O)CC(=O)O[C@H]1C)C[C@H](O)[C@H]2C(=O)O [amphotericin B]
- IC50 (tyrosinase): 263 ± 11.8 µM

SMILES: CC(=O)Nc1ccc(/C=N/NC(N)=S)cc1 [thioacetazone]
- IC50 (tyrosinase): 14 µM

SMILES: Sc1nc2ccccc2s1 [Compound 2-TBT, 2-thiobenzothiazole]
- Copper-chelating activity [1]: 48% to 69

SMILES: N=C(N)NN=C1C=CC(=NNC(N)=S)C=C1 [ambazone]
- IC50 (tyrosinase): 15 µM

SMILES: CC1(C)C=Cc2c(O)ccc(C3=Cc4ccc(O)cc4OC3)c2O1 [glabrene]
- IC50 (tyrosinase): 7600 µM

SMILES: O=c1cc(CO)occ1O [KA, kojic acid]
- melanin content ([2]; 1000 μM, 48 h, α-MSH-stimulated B16F10, vs α-MSH group): reduced melanin content significantly
- Copper-chelating activity [3]: 75%

- IC50 (mushroom tyrosinase): 61.6 ± 7.82 µM
SMILES: S=C(NCc1ccc(CNC(=S)Nc2ccc(Cl)cc2)cc1)Nc1ccc(Cl)cc1 [Compound 4]
- melanin production ([2]; 10 and 30 μM, 48 h, α-MSH (1 μM)-treated B16F10, vs α-MSH group): significantly inhibited melanin production
- anti-melanogenic activity compared to KA ([2]; α-MSH-stimulated B16F10, approximately): 30–100 times
- viability at 48 h, 1 µM (cytotoxicity MTT assay; 1 μM): ~90%
- viability at 48 h, 3 µM (cytotoxicity MTT assay; 3 μM): ~90%
- viability at 48 h, 10 µM (cytotoxicity MTT assay; 10 μM): ~75%
- viability at 48 h, 30 µM (cytotoxicity MTT assay; 30 μM): ~50%
- viability at 48 h, 100 µM (cytotoxicity MTT assay; 100 μM): < 40%
- Copper-chelating activity [3]: 64%

SMILES: S=C1NCCCc2occc21 [Compound T4FAT, 5,6,7,8-tetrahydro-4H-furo[3,2-c]azepine-4-thione]
- copper ions chelated ([1]; 200 mM ref 63): more than 80%

SMILES: O=C(O)CN(CCN(CC(=O)O)CC(=O)O)CC(=O)O [EDTA, ethylenediaminetetraacetic acid]
- Copper-chelating activity [3]: 95%

Source: paper PMC12897533, “Discovery of bis-thiourea derivatives as potent tyrosinase inhibitors: combined experimental and computational study” (Journal of Enzyme Inhibition and Medicinal Chemistry, 2025)
